The values below come from patent publication US20260055117A1, “SUBSTITUTED PYRIDONE GPR84 ANTAGONISTS AND USES THEREOF” (Liminal BioSciences Limited, priority 2022, published 2026).

SMILES strings stand for the structures. Bounds are passed on as bounds.

One may read the IC50 as the point on the concentration scale where inhibition reaches its midpoint. Higher therefore signals a need for much substance. In general, inhibition refers to the drop in the measured response relative to a control, in per cent. A lower inhibition goes with a response near the control.

For the experiment, the target named is T1, human GPR84 receptor (Homo sapiens, UniProt Q9NQS5).
T1 construct: host or cells: HEK293, transiently transfected
The experiment can be described thus: Gαi biosensor BRET assay (GPR84 antagonism vs agonist ZQ-16). To be noted: HEK293 cells, 200 nmol/L agonist ZQ-16; for IC50: Gαi biosensor BRET assay; for inhibition at 10 µM: tested at 10 μM (concentration code D); for inhibition at 2 µM: tested at 2 μM (concentration code A). In kind it is cell-based. An outline of the steps:
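HEK293 cells transiently expressing GPR84, Gαi2-Rluc8, GFP10-Gγ2 and Gβ1 were pre-incubated with compounds 5 min at 37 °C in Tyrode's buffer pH 7.5, then stimulated with 200 nmol/L ZQ-16 for 5 min at room temperature. BRET2 (acceptor/donor ratio) read after 5 μmol/L coelenterazine 400A, background- and vehicle-corrected.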
In general terms: BRET reads energy transfer from a luciferase to a nearby fluorophore.

T1 sequence (Q9NQS5 whole entry): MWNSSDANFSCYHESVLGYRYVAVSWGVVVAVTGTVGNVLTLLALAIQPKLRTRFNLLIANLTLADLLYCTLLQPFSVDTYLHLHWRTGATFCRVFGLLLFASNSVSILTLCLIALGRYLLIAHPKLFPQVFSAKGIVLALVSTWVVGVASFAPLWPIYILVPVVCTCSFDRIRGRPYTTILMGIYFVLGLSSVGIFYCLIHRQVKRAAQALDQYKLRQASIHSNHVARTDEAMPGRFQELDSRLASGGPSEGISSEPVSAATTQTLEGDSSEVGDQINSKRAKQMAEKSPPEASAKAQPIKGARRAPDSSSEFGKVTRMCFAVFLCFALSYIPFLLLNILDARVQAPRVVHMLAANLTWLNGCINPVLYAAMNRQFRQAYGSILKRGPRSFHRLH

Take `Cc1cc(OCC(=O)N2CCCC23CC3)cc(=O)n1[C@H](C)c1ccc(C#CC2CC2)cc1` [Compound I-320]: the IC50 was no more than 300 nM and the inhibition at 10 µM was greater than 75%.

In the case of `Cc1cc(OCC(=O)N(C)CC(C)C)cc(=O)n1[C@H](C)c1ccc(C#CC2CC2)cc1` [Compound I-65], the IC50 was no more than 300 nM and the inhibition at 10 µM was greater than 75%. In turn, `Cc1noc(COc2cc(C)n([C@H](C)c3ccc(C#CC4CC4)cc3)c(=O)c2)n1` [Compound I-12] registered an inhibition at 10 µM greater than 75%. The same measure, in the same setting: to `Cc1cc(C#CC2CC2)cc(=O)n1[C@H](C)c1ccc(Br)cc1` [Compound I-240] belongs less than 25%.

As to `Cc1cc(OCCN(C)C)cc(=O)n1[C@H](C)c1ccc(C#CC2CC2)cc1` [Compound I-280], the inhibition at 10 µM lay in the range of 50 to 75%. Compound `Cc1cc(OCC(=O)N2CC3(COC3)C2)cc(=O)n1[C@H](C)c1ccc(C#CC2CC2)cc1` [Compound I-283] had an IC50 of no more than 300 nM and an inhibition at 10 µM greater than 75%. For `Cc1cc(OCC(=O)N(C)C2CCN(C)CC2)cc(=O)n1[C@H](C)c1ccc(C#CC2CC2)cc1` [Compound I-44], the inhibition at 2 µM was greater than 75%. Consider `Cc1cc(OCC(=O)N2CC[C@H](O)C2)cc(=O)n1[C@H](C)c1ccc(C#CC2CC2)cc1` [Compound I-242], for which the IC50 was no more than 300 nM and the inhibition at 2 µM was greater than 75%. `Cc1cc(OCC(=O)N(C)C)c(O)c(=O)n1[C@H](C)c1ccc(C#CC2CC2)cc1` [Compound I-286] showed an inhibition at 10 µM of 50 to 75%. Take `Cc1cc(OCC(=O)N2CC[C@H](F)C2)cc(=O)n1[C@H](C)c1ccc(C#CC2CC2)cc1` [Compound I-244]: the IC50 was no more than 300 nM and the inhibition at 2 µM was greater than 75%. For `Cc1cc(OCC(=O)N2CC[C@@H](O)C2)cc(=O)n1[C@H](C)c1ccc(C#CC2CC2)cc1` [Compound I-241] the same measures were no more than 300 nM and greater than 75%. `COc1cc(C(C)n2c(C)cc(OCC(=O)N(C)C)cc2=O)ccn1` (stereo not drawn) [Compound I-230] returned an inhibition at 10 µM of less than 25%. Same read-out and setting: to `Cc1nc(OCC(=O)N2CC[C@@H](C(=O)O)C2)cc(=O)n1[C@H](C)c1ccc(C#CC2CC2)cc1` [Compound I-298] belongs greater than 75%. `Cc1nc(OCC(=O)N2CCC[C@H]2C(=O)O)cc(=O)n1[C@H](C)c1ccc(C#CC2CC2)cc1` [Compound I-297] registered an inhibition at 10 µM greater than 75%.

As for `Cc1cc(OCS(N)(=O)=O)cc(=O)n1[C@H](C)c1ccc(C#CC2CC2)c(F)c1` [Compound I-46], the inhibition at 10 µM is greater than 75%. For the compound `Cc1cc(OCC(=O)N2CC[C@@H](F)C2)cc(=O)n1[C@H](C)c1ccc(C#CC2CC2)cc1` [Compound I-243], the IC50 is no more than 300 nM and the inhibition at 2 µM was greater than 75%. As to `COc1ccc([C@H](C)n2c(C)cc(C#CC3CC3)cc2=O)cc1` [Compound I-239], the inhibition at 2 µM was less than 25%.

The compound `Cc1cc(OCC(=O)N(C)C)cc(=O)n1[C@H](C)c1ccc(C#CC2CC2)c(C#N)c1` [Compound I-34] had an IC50 of no more than 300 nM and an inhibition at 2 µM greater than 75%. As for `Cc1cc(OCC2(N(C)C)COC2)cc(=O)n1[C@H](C)c1ccc(C#CC2CC2)cc1` [Compound I-36], the inhibition at 10 µM was greater than 75%.

The compound `Cc1cc(OCc2ncccn2)cc(=O)n1[C@H](C)c1ccc(C#CC2(C)CC2)cc1` [Compound I-77] displayed an inhibition at 10 µM of 50 to 75%. The compound `Cc1nc(OCC(=O)N(C)C)cc(=O)n1[C@H](C)c1ccc(C#CC2CC2)cc1` [Compound I-217] returned an IC50 of no more than 300 nM and an inhibition at 2 µM greater than 75%. For `CCCC#Cc1ccc([C@@H](C)n2c(C)cc(OCC(=O)N(C)C)cc2=O)cc1` [Compound I-20], the IC50 is no more than 300 nM and the inhibition at 10 µM was greater than 75%. `C[C@H](c1ccc(C#CC2CC2)cc1)n1c(CO)cc(OCC(=O)N(C)C)cc1=O` [Compound I-287] had an inhibition at 10 µM greater than 75%. Compound `Cc1cc(OCc2ncc(NS(=O)(=O)C(F)(F)F)cn2)cc(=O)n1[C@H](C)c1ccc(C#CC2CC2)cc1` [Compound I-76] yielded an IC50 of no more than 300 nM and an inhibition at 2 µM greater than 75%. For the compound `Cc1cc(OCC(=O)NCCN2CCCC2)cc(=O)n1[C@H](C)c1ccc(C#CC2CC2)cc1` [Compound I-346], the inhibition at 10 µM fell in the range of 25 to 50%.

`Cc1cc(OCC2(N(C)C)COC2)cc(=O)n1[C@H](C)c1ccc(C#CC2CC2)c(F)c1` [Compound I-19]: the inhibition at 10 µM was 50 to 75%. `[2H]C([2H])([2H])N(C(=O)COc1cc(C)n([C@H](C)c2ccc(C#CC3CC3)cc2)c(=O)c1)C([2H])([2H])[2H]` [Compound I-6] came in with an IC50 of no more than 300 nM and an inhibition at 2 µM greater than 75%. The compound `CCCCc1ccc(C(C)n2c(C)cc(OCc3ncccn3)cc2=O)cc1` (stereo not drawn) [Compound I-5, 1-(1-(4-butylphenyl)ethyl)-6-methyl-4-(pyrimidin-2-ylmethoxy)pyridin-2 (1H)-one] registered an inhibition at 10 µM of less than 25%. Still for that read-out and setting: for `CNS(=O)(=O)COc1cc(C)n([C@H](C)c2ccc(C#CC3CC3)cc2)c(=O)c1` [Compound I-47] the value was 50 to 75%; for `Cc1cc(OCC(=O)NC2CCN(C)CC2)cc(=O)n1[C@H](C)c1ccc(C#CC2CC2)cc1` [Compound I-43], 50 to 75%. On the same count and under the same terms, for `Cc1cc(OCc2ncccn2)cc(=O)n1[C@H](C)c1ccc(C#CC2(C(F)(F)F)CC2)c(F)c1` [Compound I-53] the value was 50 to 75%.

Regarding `CNS(=O)(=O)[C@@H]1CCN(C(=O)COc2cc(C)n([C@H](C)c3ccc(C#CC4CC4)cc3)c(=O)c2)C1` [Compound I-321], the IC50 was no more than 300 nM and the inhibition at 2 µM was greater than 75%. As to `Cc1cc(OCC(=O)N2CC(C)(C)C2)cc(=O)n1[C@H](C)c1ccc(C#CC2CC2)cc1` [Compound I-342], the IC50 is 300 to 1000 nM and the inhibition at 10 µM is greater than 75%. In turn, `Cc1cc(OCC(=O)N(C)C)cc(=O)n1[C@H](C)c1ccc(C#CC2CC2)c(N(C)C)c1` [Compound I-38] yielded an inhibition at 10 µM greater than 75%. In the case of `Cc1cc(OCC(=O)N2CC(C)C2)cc(=O)n1[C@H](C)c1ccc(C#CC2CC2)cc1` [Compound I-290], the IC50 is no more than 300 nM and the inhibition at 2 µM was greater than 75%. `Cn1c(-c2ccc(C#CC3CC3)cc2)cc(OCC2COCCO2)nc1=O` (stereo not drawn) [Compound I-215] showed an inhibition at 10 µM of less than 25%. Same read-out and setting: for `Cc1cc(OCC(=O)C2CCCC2)cc(=O)n1[C@H](C)c1ccc(C#CC2CC2)cc1` [Compound I-273] the value was greater than 75%. On to `CNS(=O)(=O)C1CN(C(=O)COc2cc(C)n([C@H](C)c3ccc(C#CC4CC4)cc3)c(=O)c2)C1` [Compound I-323], for which the IC50 is no more than 300 nM and the inhibition at 2 µM was greater than 75%. Turning to `Cc1cc(OCC(N(C)C)C(F)(F)F)cc(=O)n1[C@H](C)c1ccc(C#CC2CC2)cc1` (stereo partly drawn) [Compound I-86], the inhibition at 10 µM was 50 to 75%.

Turning to `CCC#Cc1ccc([C@@H](C)n2c(C)cc(OCC(=O)N(C)C)cc2=O)cc1` [Compound I-28], the half-maximal inhibitory concentration (IC50) is no more than 300 nM and the inhibition at 10 µM is greater than 75%. Take `Cc1cc(OCC(=O)N2CCC[C@@H]2C(N)=O)cc(=O)n1[C@H](C)c1ccc(C#CC2CC2)cc1` [Compound I-318]: the IC50 was in the range of 300 to 1000 nM and the inhibition at 10 µM was greater than 75%.

On to `Cc1cc(OCC(=O)N(C)C)cc(=O)n1[C@H](C)c1ccc(C(=O)O)cc1` [Compound I-265], for which the inhibition at 10 µM was less than 25%.
